Values joined by “and” are separate entries in the source; they are usually repeats but may differ in a detail not shown here. Equal values may be shown once.
System: 485368-065-R4-J2-PDC spheroids with HUVEC/MSC, viability
Test: Anticancer human tumor 485368-065-R4-J2-PDC patient-derived pancreatic carcinoma cell line growth inhibition [CLK]
Conditions: for viability, T/C: stronger effect = lower value; active = viability on the fitted dose curve at most 10% of control; inactive = the rest
Text: A high-throughput screen of multi-cell type tumor spheroids was designed to identify active combinations of […] and targeted small molecules. Complex spheroids include a stromal component modeled by human endothelial cells (HUVEC) and fibroblasts modeled by human mesenchymal stem cells (MSCs). The concentration ranges selected for each drug and investigational agent were based upon clinically achievable concentrations if the clinical Cmax of the agent was known.
Compounds. The drugs and investigational agents: cirtuvivint (SM08502; NSC835563), CC-671 (NSC850746), vemurafenib (NSC761431), tapotoclax (NSC804041), sotorasib (NSC818433), adagrasib (NSC831453), MRTX-1133 (NSC836407), BAY2416964 (NSC825713), copanlisib (NSC816437), inavolisib (NSC800729), abemaciclib (NSC768073), osimertinib (NSC779217), entinostat (NSC756642), eltanexor (KPT-8602, NSC794443), venetoclax (NSC766270), ceralasertib (NSC777638), bortezomib (NSC756655), olaparib (NSC753686), talazoparib (NSC767125), alisertib (NSC759677), peposertib (NSC802822), gemcitabine (NSC613327), 5-fluorouracil (NSC19893), SN-38 (NSC673596), oxaliplatin (NSC266046), paclitaxel (NSC125973), and doxorubicin (NSC123127), were obtained from the National Cancer Institute (NCI) Developmental Therapeutics Program Chemical Repository. The FDA-approved anticancer drug set is available from the Developmental Therapeutics Program at https://dtp.cancer.gov/organization/dscb/obtaining/available plates.htm. […] The stock solutions were prepared in dimethyl sulfoxide (DMSO, Sigma-Aldrich, St. Louis, MO, cat. D2650), except for the platinum complexes which were prepared in saline (Quality Biological, Gaithersburg, MD, cat. 114-055-101), at 800-fold the tested concentration and stored at -70 degrees C prior to their use. All drugs and investigational agents were tested over a range starting from a high concentration at or near the clinical Cmax and decreasing in half-log increments. If the clinical Cmax for an agent had not been determined, the highest concentration tested was 10 microM.
Cell Culture. All cells were maintained in an incubator at 37 degrees C and 5% CO2 with 95% humidity. The PDC lines were cultured according to standard operating procedures established by the NCI PDMR. Briefly, all PDCs were thawed and cultured in Matrigel-coated flasks prepared with a working solution of 1X Ham's F-12 nutrient mix, without supplementation (Invitrogen, Waltham, MA, cat. 11765054), 100 U/mL penicillin-streptomycin (Invitrogen, cat. 15140122), and 2.5% Matrigel (Corning Inc., Corning, NY, cat. 354248) for the first three passages. The 947758-054-R-J2-PDC line was cultured in 6B/Colon 1A media, which includes advanced DMEM/F-12 (Thermo Fisher Scientific, cat. 12634028), 10 mM HEPES (Thermo Fisher Scientific, cat. 15630080), 1X GlutaMAX supplement (Thermo Fisher Scientific, cat. 35050061), 0.1 mg/mL primocin (InvivoGen, cat. ant-pm-2), 10% defined fetal bovine serum, heat inactivated (HyClone Laboratories Inc., cat. SH30070.03HI), 1.25 mM N-Acetyl-L-cysteine (Sigma-Aldrich, cat. A9165), 10 mM nicotinamide (Sigma-Aldrich, cat. N0636), 1X B-27 supplement (Thermo Fisher Scientific, cat. 17504044), 1X N-2 supplement (Thermo Fisher Scientific, cat. 17502048), and 10 microM Y-27632 dihydrochloride (Tocris Bioscience, cat. 1254). The 876862-298-R-J1-PDC was cultured in 6E media, which includes all 6B/Colon 1A media components plus 50% L-WRN conditioned media (ATCC, cat. CRL-3276), 50 ng/mL recombinant human EGF recombinant protein (hEGF; Thermo Fisher Scientific, cat. PHG0311), 10 ng/mL recombinant human fibroblast growth factor 10 (hGFG-10; PeproTech, cat. 100-26), 1 ng/mL recombinant human fibroblast growth factor 2 (hFGF-2; PeproTech, cat. 100-18B), and 1 µM prostaglandin E2 (PGE2; Tocris, cat. 2296). The 227483-062-R1-J1-PDC line was cultured in Panc media, containing all 6E components except hFGF-2, with the addition of 500 nM SB-431542 (Selleckchem, cat. S1067) and 10 nM gastrin (Tocris, cat. 3006). […]

[1] = curve of first compound, second compound 0.0316 µM
[2] = curve of first compound, second compound 0.1 µM
[3] = curve of first compound, second compound 0.316 µM
[4] = curve of first compound, second compound 1 µM
[5] = curve of first compound, second compound 3.16 µM
[6] = curve of first compound, second compound 10 µM
[7] = second compound 0.0316 µM, first compound 0.0316 µM
[8] = second compound 0.0316 µM, first compound 0.1 µM
[9] = second compound 0.0316 µM, first compound 0.316 µM
[10] = second compound 0.0316 µM, first compound 1 µM
[11] = second compound 0.1 µM, first compound 0.0316 µM
[12] = second compound 0.1 µM, first compound 0.1 µM
[13] = second compound 0.1 µM, first compound 0.316 µM
[14] = second compound 0.1 µM, first compound 1 µM
[15] = second compound 0.316 µM, first compound 0.0316 µM
[16] = second compound 0.316 µM, first compound 0.1 µM
[17] = second compound 0.316 µM, first compound 0.316 µM
[18] = second compound 0.316 µM, first compound 1 µM
[19] = second compound 1 µM, first compound 0.0316 µM
[20] = second compound 1 µM, first compound 0.1 µM
[21] = second compound 1 µM, first compound 0.316 µM
[22] = second compound 1 µM, first compound 1 µM
[23] = second compound 3.16 µM, first compound 0.0316 µM
[24] = second compound 3.16 µM, first compound 0.1 µM
[25] = second compound 3.16 µM, first compound 0.316 µM
[26] = second compound 3.16 µM, first compound 1 µM
[27] = second compound 10 µM, first compound 0.0316 µM
[28] = second compound 10 µM, first compound 0.1 µM
[29] = second compound 10 µM, first compound 0.316 µM
[30] = second compound 10 µM, first compound 1 µM
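Note: spheroids exposed to compounds for seven days.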
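Throughout, for viability, T/C: 100% = DMSO vehicle control wells.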

COC1C=CCC(C)C(C)S(=O)(=O)NC(=O)c2ccc3c(c2)N(CC2CCC21)CC1(CCCc2cc(Cl)ccc21)CO3 (stereo not drawn) + CN1CCN(c2cc(C(=O)Nc3cc4cc(-c5cnn(C)c5)ccc4cn3)ccn2)CC1
inactive: viability, T/C [7] 105% | viability, T/C [8] 106% | viability, T/C [9] 106% | viability, T/C [10] 113% | viability, T/C (second compound 0.0316 µM, first compound 3.16 µM) 104% | viability, T/C (second compound 0.0316 µM, first compound 10 µM) 91.6% | viability, T/C [11] 117% | viability, T/C [12] 124% | viability, T/C [13] 107% | viability, T/C [14] 114% | viability, T/C (second compound 0.1 µM, first compound 3.16 µM) 108% | viability, T/C (second compound 0.1 µM, first compound 10 µM) 90.8% | viability, T/C [15] 84% | viability, T/C [16] 86% | viability, T/C [17] 87.2% | viability, T/C [18] 78.6% | viability, T/C (second compound 0.316 µM, first compound 3.16 µM) 81.8% | viability, T/C (second compound 0.316 µM, first compound 10 µM) 63.5%
active: viability, T/C [19] 1.08% | viability, T/C [20] 2.18% | viability, T/C [21] 2.96% | viability, T/C [22] 2.24% | viability, T/C (second compound 1 µM, first compound 3.16 µM) 1.88% | viability, T/C (second compound 1 µM, first compound 10 µM) 6.49% | viability, T/C [23] 1.15% | viability, T/C [24] 3.34% | viability, T/C [25] 1.27% | viability, T/C [26] 2.24% | viability, T/C (second compound 3.16 µM, first compound 3.16 µM) 2.02% | viability, T/C (second compound 3.16 µM, first compound 10 µM) 4.8% | viability, T/C [27] 2.15% | viability, T/C [28] 4.22% | viability, T/C [29] 1.64% | viability, T/C [30] 3.68% | viability, T/C (second compound 10 µM, first compound 3.16 µM) 2.18% | viability, T/C (second compound 10 µM, first compound 10 µM) 2.71%
> 10 µM: IC50 [1] | IC50 [2] | IC50 [3]
< 0.0316 µM: IC50 [4] | IC50 [5] | IC50 [6]

CCN1CCN(Cc2ccc(Nc3ncc(F)c(-c4cc(F)c5nc(C)n(C(C)C)c5c4)n3)nc2)CC1 + CN1CCN(c2cc(C(=O)Nc3cc4cc(-c5cnn(C)c5)ccc4cn3)ccn2)CC1
> 1 µM: IC50 [1] | IC50 [2] | IC50 [3]
active: viability, T/C (second compound 1 µM, first compound 0.00316 µM) 0.99% | viability, T/C (second compound 1 µM, first compound 0.01 µM) 0.79% | viability, T/C [19] 1.5% | viability, T/C [20] 1.72% | viability, T/C [21] 3.79% | viability, T/C [22] 6.61% | viability, T/C (second compound 3.16 µM, first compound 0.00316 µM) 1.45% | viability, T/C (second compound 3.16 µM, first compound 0.01 µM) 1.98% | viability, T/C [23] 1.44% | viability, T/C [24] 3.25% | viability, T/C [25] 3.87% | viability, T/C [26] 6.47% | viability, T/C (second compound 10 µM, first compound 0.00316 µM) 1.45% | viability, T/C (second compound 10 µM, first compound 0.01 µM) 1.41% | viability, T/C [27] 2.59% | viability, T/C [28] 1.89% | viability, T/C [29] 2.62% | viability, T/C [30] 3.7%
inactive: viability, T/C (second compound 0.0316 µM, first compound 0.00316 µM) 94.5% | viability, T/C (second compound 0.0316 µM, first compound 0.01 µM) 116% | viability, T/C [7] 110% | viability, T/C [8] 138% | viability, T/C [9] 132% | viability, T/C [10] 120% | viability, T/C (second compound 0.1 µM, first compound 0.00316 µM) 103% | viability, T/C (second compound 0.1 µM, first compound 0.01 µM) 112% | viability, T/C [11] 113% | viability, T/C [12] 113% | viability, T/C [13] 126% | viability, T/C [14] 109% | viability, T/C (second compound 0.316 µM, first compound 0.00316 µM) 79% | viability, T/C (second compound 0.316 µM, first compound 0.01 µM) 76.1% | viability, T/C [15] 79.3% | viability, T/C [16] 78.9% | viability, T/C [17] 66.8% | viability, T/C [18] 60.7%
< 0.00316 µM: IC50 [4] | IC50 [5] | IC50 [6]

CCc1c2c(nc3ccc(O)cc13)-c1cc3c(c(=O)n1C2)COC(=O)[C@]3(O)CC
7.05% and 6.79%: viability, T/C (compound 0.316 µM)
active: viability, T/C (compound 1 µM) 14.8% and 15.6%
< 0.00316 µM and 0.00383 µM: IC50 (curve of compound)
inactive: viability, T/C (compound 0.00316 µM) 46.5% and 55.5% | viability, T/C (compound 0.01 µM) 22.5% and 24.9% | viability, T/C (compound 0.0316 µM) 10.9% and 13.2%
7.63% and 7.75%: viability, T/C (compound 0.1 µM)

Cn1ncnc1[C@H]1c2n[nH]c(=O)c3cc(F)cc(c23)N[C@@H]1c1ccc(F)cc1
inactive: viability, T/C (compound 0.000316 µM) 94.6% and 84.6% | viability, T/C (compound 0.001 µM) 88.2% and 97.3% | viability, T/C (compound 0.00316 µM) 100% and 92.9% | viability, T/C (compound 0.01 µM) 94.7% and 89.8% | viability, T/C (compound 0.0316 µM) 94.3% and 105% | viability, T/C (compound 0.1 µM) 97.9% and 98.6%
> 0.1 µM: IC50 (curve of compound)

Source: PubChem BioAssay AID2060617 (Molecular Pharmacology Branch, DTP, NCI, 2025)
